{"source": "patent US11090308B2", "about": "“Methods of treating liver disorders or lipid disorders with a THR-beta agonist” (Madrigal Pharmaceuticals, Inc., priority 2016, dated 2021)", "biological_target": "T1, BCRP (Homo sapiens, UniProt Q9UNQ0)", "T1 sequence (Q9UNQ0 1-655)": "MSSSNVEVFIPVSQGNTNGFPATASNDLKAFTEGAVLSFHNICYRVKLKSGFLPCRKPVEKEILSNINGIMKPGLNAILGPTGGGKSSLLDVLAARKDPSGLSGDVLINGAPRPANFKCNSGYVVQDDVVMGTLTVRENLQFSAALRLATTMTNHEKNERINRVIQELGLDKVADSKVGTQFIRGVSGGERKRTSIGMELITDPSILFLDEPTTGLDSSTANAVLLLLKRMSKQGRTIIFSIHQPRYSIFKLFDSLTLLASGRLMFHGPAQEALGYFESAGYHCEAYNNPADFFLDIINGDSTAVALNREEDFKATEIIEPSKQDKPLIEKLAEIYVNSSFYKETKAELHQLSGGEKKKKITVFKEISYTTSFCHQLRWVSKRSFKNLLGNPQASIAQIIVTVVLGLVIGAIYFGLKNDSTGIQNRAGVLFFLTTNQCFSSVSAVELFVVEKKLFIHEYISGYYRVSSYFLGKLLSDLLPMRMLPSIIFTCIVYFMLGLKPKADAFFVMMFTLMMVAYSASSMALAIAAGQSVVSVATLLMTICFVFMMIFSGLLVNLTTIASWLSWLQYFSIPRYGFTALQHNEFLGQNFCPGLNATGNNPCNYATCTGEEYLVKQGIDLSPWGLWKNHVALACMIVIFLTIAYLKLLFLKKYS", "assay": "In vitro drug transporter assay, BCRP", "assay_type": "in vitro ADME", "text": "The following studies have been conducted: (a) in vitro drug protein binding, transporter (organic anion transporting polypeptide [OATP], P-glycoprotein [P-gp], breast cancer-related protein [BCRP], and multiple drug resistance protein 1 [MDR1]), and cytochrome P-450 enzyme assays to investigate absorption, distribution, and excretion; (b) in vivo MGL-3196 rat and dog oral PK and bioavailability studies; (c) in vivo ^14C-MGL-3196 rat and dog oral pharmacokinetics, absorption, excretion, and tissue distribution by quantitative whole-body autoradiography (QWBA) studies; and (d) liver disposition of MGL-3196 using an in vitro sandwiched hepatocyte model system (B-CLEAR® technology) in dog (SCDH) and human (SCHH) hepatocytes."}
{"smiles": "CC(C)c1cc(Oc2c(Cl)cc(-n3nc(C#N)c(=O)[nH]c3=O)cc2Cl)n[nH]c1=O", "note": "[MGL-3196, 2-(3,5-dichloro-4-((5-isopropyl-6-oxo-1,6-dihydropyridazin-3-yl)oxy)phenyl)-3,5-dioxo-2,3,4,5-tetrahydro-1,2,4-triazine-6-carbonitrile]", "values": [{"measurement": "Substrate for: BCRP", "value": "BCRP"}, {"measurement": "Inhibitor of: BCRP, % inhibition", "setting": "@ 25 uM genistein", "value": "3-sulfate; 24% @ 25 uM genistein)"}, {"measurement": "IC50", "setting": "for Estrone-3-sulfate, read-out: Inhibitor of: BCRP, IC50", "value": 27.4, "unit": "µM"}]}
